T1: Corynebacterium glutamicum Cg10062 variant E114N, SEQ ID NO: 62 (Corynebacterium glutamicum, UniProt Q8NU77, E115N)
T1 sequence (Q8NU77 with tags, fused parts or gaps E115N): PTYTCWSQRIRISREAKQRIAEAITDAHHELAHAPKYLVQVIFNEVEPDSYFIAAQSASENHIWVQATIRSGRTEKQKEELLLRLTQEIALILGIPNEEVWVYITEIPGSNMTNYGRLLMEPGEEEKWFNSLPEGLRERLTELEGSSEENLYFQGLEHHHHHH

B1: MmsB: 3-hydroxyisobutyrate dehydrogenase from P. putida KT2440, SEQ ID NO: 76 (protein)
chain: MRIAFIGLGNMGAPMARNLIKAGHQLNLFDLNKAVLAELAELGGQISPSPKDAAANSELVITMLPAAAHVRSVYLNEDGVLAGIRPGTPTVDCSTIDPQTARDVSKAAAAKGVDMGDAPVSGGTGGAAAGTLTFMVGASTELFASLKPVLEQMGRNIVHCGEVGTGQIAKICNNLLLGISMIGVSEAMALGNALGIDTKVLAGIINSSTGRCWSSDTYNPWPGIIETAPASRGYTGGFGAELMLKDLGLATEAARQAHQPVILGAVAQQLYQAMSLRGEGGKDFSAIVEGYRKKDENLYFQGLEHHHHHH
modifications: MmsB from Pseudomonas putida KT2440 plus TEV protease recognition site and C-terminal His6-tag

Legend:
[1] = biological target: T1, Corynebacterium glutamicum Cg10062 variant E114N, SEQ ID NO: 62; assay: Effect of NADP(H) on ACA hydration during in vitro 3-HP synthesis with cofactor recycling; format: biochemical; details: 100 mM ACA conversion to 3-HP with 0.001-1 eq NADP^+, 25 °C, pH 8.0
From the text: This in vitro pathway developed in this study utilizes the novel Cg10062 (E114N) hydratase-only mutant with two other enzymes, YdfG and PTDH (FIG. 1). YdfG is a NADP^+-dependent 3-hydroxy acid dehydrogenase from E. coli and has previously been used for the in vivo production of 3-HP via the β-alanine pathway. […] For our system to be applied practically, the cost of cofactor is an important consideration. NADPH is an expensive cofactor and in order for the pathway to be an efficient, cost-effective pathway, the use of sub-stoichiometric amounts of co-factor was carried out. […] The formation of 3-HP in these assays were also confirmed using ^1H NMR (FIG. 4A-C).
All stocks solutions were prepared in 100 mM sodium phosphate pH 8.0. Ethylene glycol (20% w/v) was added to all enzyme stock solutions. […] Each reaction was carried out in duplicate at 25° C. with constant slow mixing on a rocking platform. Reactions were initiated by the addition of ACA. Samples from each reaction were quenched at indicated timepoints for analysis by HPLC and ^1H NMR, as described below.
All samples (100 μL) were quenched and by addition of 5 μL of 18 M sulfuric acid. The final volume was adjusted to 500 μL using 0.01 N sulfuric acid. The samples were prepared for HPLC using Whatman Mini-UniPrep® G2 syringeless filters with a glass microfiber membrane.

[2] = pH dependence of MmsB; format: biochemical; details: in potassium phosphate; 25° C.
Experimental: The pH dependence of MmsB was measured using four different buffer systems: 100 mM potassium phosphate, 50 mM Tris-HCl, 50 mM bis-tris propane and 50 mM HEPES buffers for pH 6.5-8.0, 7.0-9.0, 7.0-9.0 and 7.0-8.0, respectively. The pH dependence was studied using the respective enzyme assay used for kinetic characterization as described previously. All pH studies were carried out in triplicate (1 mL) on a Shimadzu UV2600 spectrophotometer at 25° C. and checked to ensure that the final pH of each assay remained unchanged with the addition of assay components. All stock solutions were prepared in water and the assays were carried out in the respective buffers for each pH.

| Molecule | inhibitory effect on Cg10062 (E114N) [1] | pH of highest activity [2] |
| --- | --- | --- |
| NADP(H) | inhibitory effect |  |
| B1 |  | 7 |
